In patent publication US20040034022A1, “Polymorphic forms/hydrates of n-[4-(3-chloro-4-fluorophenylamino)-7-(3-morpholin-4-ylpropoxy)-quinazolin-6-yl]-acrylamide dihydrochloride” (priority 2000, published 2004):
Where a name gives a salt, the structure may show the parent alone.

Experiment: Temperature stress experiments: thermal stability of the solid forms, purity by HPLC
Type: physicochemical
Details: for HPLC Purity Start: solid form before temperature stress; for HPLC Purity: solid
Text: Temperature Stress Experiments For the investigation of the thermal stability, the solid forms A, B and M are heated in open test tubes (l: 110 mm, d: 5 mm) or in test tubes closed by means of a glass stamp in an oil bath at temperatures and for a period of time as given in the Table. Subsequently, the purity of the remaining products is investigated by means of HPLC methods (column: LunaRP18 (25×0.46 cm); mobile phase: acetonitrile:methanol: 0.02M aq. ammonium acetate:triethylamine (55:5:40:0.05). (s): test tube with glass stamp

With C=CC(=O)Nc1cc2c(Nc3ccc(F)c(Cl)c3)ncnc2cc1OCCCN1CCOCC1 [Form A, N-[4-(3-chloro-4-fluorophenylamino)-7-(3-morpholin-4-ylpropoxy)-quinazolin-6-yl]-acrylamide Dihydrochloride Form A] the “HPLC Purity Start” value (listed as A) was 99.28 rel %, the “HPLC Purity” value (16 hr, 100° C., then 8 hr, 150° C., (s): test tube with glass stamp, listed as A) was 23.45 (s) rel % and the “HPLC Purity” value (16 hr, 100° C., then 8 hr, 150° C., open test tube, listed as A) was 25.28 rel %. For the same compound, the “HPLC Purity” value (7 d, 80° C., (s): test tube with glass stamp, listed as A) was 99.02 (s) rel % and the “HPLC Purity” value (7 d, 80° C., open test tube, listed as A) was 97.51 rel %.

For C=CC(=O)Nc1cc2c(Nc3ccc(F)c(Cl)c3)ncnc2cc1OCCCN1CCOCC1 [Form M, N-[4-(3-chloro-4-fluorophenylamino)-7-(3-morpholin-4-ylpropoxy)-quinazolin-6-yl]-acrylamide Dihydrochloride Form M], the “stability towards the heating of the solid substance” value (heating at 80° C. or 150° C., in comparison to the forms A or B) was “more stable form”, the “HPLC Purity Start” value (listed as M) was 99.49 rel % and the “HPLC Purity” value (16 hr, 100° C., then 8 hr, 150° C., (s): test tube with glass stamp, listed as M) was 99.43 (s) rel %. The “HPLC Purity” value (16 hr, 100° C., then 8 hr, 150° C., open test tube, listed as M) was 99.43 rel %, the “HPLC Purity” value (8 d, 80° C., (s): test tube with glass stamp) was 99.61 (s) rel % and the “HPLC Purity” value (8 d, 80° C., open test tube) was 99.62 rel %.

With C=CC(=O)Nc1cc2c(Nc3ccc(F)c(Cl)c3)ncnc2cc1OCCCN1CCOCC1 [Form B, N-[4-(3-chloro-4-fluorophenylamino)-7-(3-morpholin-4-ylpropoxy)-quinazolin-6-yl]-acrylamide Dihydrochloride Form B] the “HPLC Purity Start” value (listed as B) was 99.77 rel %, the “HPLC Purity” value (16 hr, 100° C., then 8 hr, 150° C., (s): test tube with glass stamp, listed as B) was 75.28 (s) rel % and the “HPLC Purity” value (16 hr, 100° C., then 8 hr, 150° C., open test tube, listed as B) was 75.32 rel %. The “HPLC Purity” value (7 d, 80° C., (s): test tube with glass stamp, listed as B) was 84.40 (s) rel % and the “HPLC Purity” value (7 d, 80° C., open test tube, listed as B) was 89.39 rel %.
